Here are results for 2 compounds from patent publication US8809328B2, “Imidazole derivative” (National University Corporation Shizuoka University, priority 2011, dated 2014).

Holding throughout (format): in vivo
Assay [1] relates to rice (Nipponbare) (Oryza sativa L. cv. Nipponbare). Description: Influence of AHX or AOH on rice seedlings in test tube culture fluid (Example 6). The note with it: 50, 200 or 1000 μM in culture fluid, 28° C., one week, FIG. 4. On the procedure: Sterilized seeds of rice (Nipponbare) (Oryza sativa L. cv. Nipponbare) were allowed to sprout at 28° C. in three days. The sprouted seeds (four seeds per test tube) were cultivated in a test tube, in which a control culture fluid or a culture fluid to which AHX or AOH was added to different concentrations and was placed, at 28° C. for a week. AOH that was produced according to the method of Example 5 was used. The control culture fluid comprises 0.5 mM of NH4NO3, 0.3 mM of Na2HPO4, 0.15 mM of K2SO4, 0.2 mM of MgCl2, 0.1 mM of CaCl2, 23 μM of Fe-ethylenediaminetetraacetic acid (Fe-EDTA), 25 μM of H3BO3, 4.5 μM of MnSO4, 0.15 μM of CuSO4, 0.35 μM of ZnSO4, and 0.05 μM of Na2MoO4. As for the culture fluids containing AHX or AOH, AHX or AOH is added to the above described control culture fluids such that the final concentration becomes 50 μM, 200 μM or 1000 μM. The culture fluid was replaced with new culture fluid every other day. After cultivation, the length of shoots and roots was measured.

The subject of assay [2] is Rice (Oryza sativa). Nature of the assay: Rice cultivated in culture fluid added with AHX. The note with it: culture fluid with 0.2 mM AHX, 14 days, vs control section.
For assay [3], the system named is Zoysiagrass (Agrostis stolonifera). Description: Zoysiagrass cultivated on agar medium added with AHX. The conditions noted are these: agar medium with 1 mM AHX, 30 days, vs control section.
Assay [4] has as its system rice (Nipponbare) (Oryza sativa L. cv. Nipponbare). Nature of the assay: Influence of AOH and 3-methyl-AOH on rice seedlings in test tube culture fluid (Example 12). The conditions noted are these: 0.2 mM in culture fluid, 28° C., one week. As to the method:
Sterilized seeds of rice (Nipponbare) (Oryza sativa L. cv. Nipponbare) were allowed to sprout at 28° C. in three days. The sprouted seeds (four seeds per test tube) were cultivated in a test tube, in which a control culture fluid, a culture fluid to which 0.2 mM of AOH was added, or a culture fluid to which 0.2 mM of 3-methyl-AOH was added and was placed, at 28° C. for a week. The control culture fluid comprises 0.5 mM of NH4NO3, 0.3 mM of Na2HPO4, 0.15 mM of K2SO4, 0.2 mM of MgCl2, 0.1 mM of CaCl2, 23 μM of Fe-ethylenediaminetetraacetic acid (Fe-EDTA), 25 μM of H3BO3, 4.5 μM of MnSO4, 0.15 μM of CuSO4, 0.35 μM of ZnSO4, and 0.05 μM of Na2MoO4. The culture fluid was replaced with new culture fluid every other day. After cultivation, the length of shoots and roots was measured. […] (In FIG. 8, “*” indicates P value <0.05, and “**” indicates P value <0.01. n=16.). In contrast, 3-methyl-AOH gave no influence on extension of the shoots.

With `O=c1[nH]nnc2[nH]cnc12` [AHX, 7H-imidazo[4,5-d][1,2,3]triazin-4(3H)-one], the “Extension of shoots and roots” value in assay [1] was “promoted extension of shoots and roots concentration-dependently”. Besides, the Extension of shoots entry in assay [2] and in assay [3] was “clearly promoted” in each case.

Regarding `Cn1nnc2[nH]c(=O)[nH]c2c1=O` [3-methyl-AOH, 3-methyl-3H-imidazo[4,5-d][1,2,3]triazin-4,6(5H,7H)-dione], the Extension of shoots result in assay [4] was “no influence”. The Extension of roots result in assay [4] (FIG. 8) is given as “had extension activity for roots”.
